The numbers were not newly measured in patent US6346264B1, “Supplement for restoring growth hormone levels” (International Health Products and Services Ltd., priority 1999, dated 2002), which cites them from elsewhere.

Where two headings read alike, the source gives them in different places.

One data set deals with hGH release. The following applies: low doses in the region of 200 mg (Matteini).
For data set [1] the following is noted: 6 months, growth hormone deficient patients.
For data set [2] the following is noted: 4 months, deficient adults.
The conditions of data set [3]: after six months of usage, without exercise.
The mark [4] stands for this setting: 202 patients, age 39-74, hGH injection.

In the case of `N=C(N)NCCC[C@H](N)C(=O)O` [arginine], the hGH release entry in the data set with hGH release is on record as “can elevate hGH release”.
“hGH: human growth hormone, medical name Somatotropin, produced in the anterior pituitary gland; available as injectable bio-synthetic product”: in data set [1], the “Insulin-like Growth Factor 1 (IGF-1)” value is reported as “increase”, the fat result is given as “reduction”, the lean body mass result is recorded as “increase” and the metabolic rate result is given as “increased”. Also, the plasma cholesterol entry in data set [1] was “lowered”. For the same compound, under setting [4], the “increase in healing capacity” value is recorded as 71%; the “individuals describing improvement in duration of penile erection” value was 62%; the “individuals describing increase and improvement in sexual potency and frequency of sexual relations” value is reported as 75%; the “individuals with improved energy levels” value was 84%. Also, the “individuals with improved muscle strength” value under setting [4] is recorded as 88%. Besides, under “high frequency-low dose injections”, the IGF-1 levels result is reported as “elevated”. Further, in data set [2], the IGF-1 levels result is given as “normalized”; the fat result is recorded as “reduced”; the muscle thickness result is “increased”; the “renal plasma flow and glomerular filtration rates” value is listed as “raised from subnormal levels to levels comparable for their age”. Besides, in data set [3], the “average increase in lean muscle mass” value was 8% and the loss of fat was 14.4%.
